The record followed here is ChEMBL document CHEMBL1148111, “Synthesis and biological evaluation of hyperforin analogues. Part I. Modification of the enolized cyclohexanedione moiety” (J Nat Prod, 2002).

Molecules are shown by their SMILES. Bounds are passed on as bounds.

Chain of Sodium-dependent serotonin transporter (P31652 whole entry): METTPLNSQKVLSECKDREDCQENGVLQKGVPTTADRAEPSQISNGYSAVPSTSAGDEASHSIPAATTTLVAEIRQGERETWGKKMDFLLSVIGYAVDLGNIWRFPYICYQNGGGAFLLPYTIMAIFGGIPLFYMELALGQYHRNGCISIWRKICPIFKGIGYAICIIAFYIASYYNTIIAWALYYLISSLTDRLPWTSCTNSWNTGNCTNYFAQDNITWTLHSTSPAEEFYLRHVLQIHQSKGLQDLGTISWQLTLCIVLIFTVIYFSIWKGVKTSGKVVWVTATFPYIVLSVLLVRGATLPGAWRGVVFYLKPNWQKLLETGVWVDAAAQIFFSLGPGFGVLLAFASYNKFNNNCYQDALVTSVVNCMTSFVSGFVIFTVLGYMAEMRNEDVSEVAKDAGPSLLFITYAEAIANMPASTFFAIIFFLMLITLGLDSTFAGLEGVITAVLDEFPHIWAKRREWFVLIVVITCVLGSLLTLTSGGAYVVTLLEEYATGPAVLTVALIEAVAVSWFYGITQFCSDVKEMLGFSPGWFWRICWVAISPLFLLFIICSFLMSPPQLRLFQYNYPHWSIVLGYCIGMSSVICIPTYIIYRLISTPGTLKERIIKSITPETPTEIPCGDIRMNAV

This experiment addresses Sodium-dependent serotonin transporter (Rattus norvegicus, UniProt P31652). Briefly: Inhibition of [3H]5HT reuptake at serotonin transporter in rat brain synaptosomes. The experiment is classed as subcellular.
One may read the IC50 as the midpoint of a concentration-inhibition curve. A higher IC50 goes with weaker potency in that assay. In turn, `CC(C)=C/C=C1\C(=O)[C@@]2(CC=C(C)C)C[C@H](CC=C(C)C)[C@@](C)(CCC=C(C)C)[C@](C(=O)C(C)C)(C1=O)C2=O` gave an IC50 greater than 18.7 µM.

As to `COC1=C(CC=C(C)C)C(=O)[C@]2(C(=O)C(C)C)C(=O)[C@]1(CC=C(C)C)C[C@H](CC=C(C)C)[C@@]2(C)CCC=C(C)C`, the IC50 was greater than 18.2 µM.

`CC(C)=CCC[C@]1(C)[C@@H](CC=C(C)C)C[C@]2(CC=C(C)C)C(=O)[C@](C)(CC=C(C)C)C(=O)[C@]1(C(=O)C(C)C)C2=O` [C-Methylhyperforin] returned an IC50 greater than 18.2 µM.

As to `CC(=O)OC1=C(CC=C(C)C)C(=O)[C@]2(C(=O)C(C)C)C(=O)[C@]1(CC=C(C)C)C[C@H](CC=C(C)C)[C@@]2(C)CCC=C(C)C` [HYPERFORIN ACETATE], the concentration for half-maximal inhibition (IC50) is greater than 17.3 µM.

In the case of `CC(C)=CCC[C@]1(C)[C@@H](CC=C(C)C)C[C@]23C[C@@H](C(C)(C)O)OC2=C(CC=C(C)C)C(=O)[C@]1(C(=O)C(C)C)C3=O`, the IC50 was greater than 18.1 µM.

For the molecule `CC(C)=CCC[C@]1(C)[C@@H](CC=C(C)C)C[C@@]2(CC=C(C)C)C(=O)[C@@]1(C(=O)C(C)C)C(=O)C(CC=C(C)C)=C2OC(=O)c1cc([N+](=O)[O-])cc([N+](=O)[O-])c1`, the IC50 is greater than 13.7 µM.

Molecule `COc1cc(C(=O)OC2=C(CC=C(C)C)C(=O)[C@@]3(C(=O)C(C)C)C(=O)[C@]2(CC=C(C)C)C[C@H](CC=C(C)C)[C@@]3(C)CCC=C(C)C)cc(OC)c1OC` [HYPERFORINTRIMETHOXYBENZOATE] displayed an IC50 greater than 13.7 µM.

`CC(C)=CCC[C@]1(C)[C@@H](CC=C(C)C)C[C@]2(CC=C(C)C)C(=O)C(CC=C(C)C)=C(O)[C@@]1(C(=O)C(C)C)C2=O` gave a concentration for half-maximal inhibition (IC50) of 2.05 µM.

`CC(C)=CCC[C@]1(C)[C@@H](CC=C(C)C)C[C@]2(CC=C(C)C)C(=O)[C@]3(CC=C(C)C)O[C@@]2(O)[C@@]1(C(=O)C(C)C)C3=O` came in with a half-inhibitory concentration (IC50) greater than 18.1 µM.

`C=C(C)[C@@H]1C[C@@]23C[C@H](CC=C(C)C)[C@@](C)(CCC=C(C)C)[C@](C(=O)C(C)C)(C(=O)C(CC=C(C)C)=C2O1)C3=O` [DEHYDROFUROHYPERFORIN] showed an IC50 greater than 18.7 µM.

In turn, `CC(C)=CCC[C@]1(C)[C@@H](CC=C(C)C)C[C@@]2(CC=C(C)C)C(=O)[C@]1(C(=O)C(C)C)C(=O)C1=C2OC(C)(C)C=C1` [DEHYDROHYPERFORIN] showed an IC50 greater than 18.7 µM.

`CC(C)=CCC[C@]1(C)[C@@H](CC=C(C)C)C[C@]2(CC=C(C)C)C(=O)[C@@](O)(CC=C(C)C)C(=O)[C@@]1(C(=O)C(C)C)C2=O`: the half-maximal inhibitory concentration (IC50) is greater than 18.1 µM.
